Measured values published in patent US7553829B2, “Treatment of chronic fatigue syndrome and fibromyalgia syndrome” (Humanetics Corporation, priority 2000, dated 2009).

Test system: chronic fatigue syndrome
Experiment: Experiment 1: oral treatment of a subject diagnosed with chronic fatigue syndrome
Format: in vivo, human
Details: one subject, CFS by CDC criteria; 100 mg capsules orally twice daily for two months
Protocol: One subject, recently diagnosed with chronic fatigue syndrome by CDC criteria, orally consumed 100 mg capsules of Δ5-androstene-3-acetyl-7,17-dione twice daily for two months. […] As testament to their improvement, they reported to their physician that they had just finished building a 20′×30′ addition to their bam, something, they said, they would not have and could not have done prior to taking Δ5-androstene-3-acetyl-7,17-dione.

## CC(=O)O[C@H]1CC[C@@]2(C)C(=CC(=O)[C@@H]3[C@@H]2CC[C@]2(C)C(=O)CC[C@@H]32)C1 [Δ5-androstene-3-acetyl-7,17-dione]
  improvement in their symptoms of fatigue (self-reported): 80%
  mental alertness (self-reported): felt more mentally alert
